Here are results for four compounds from patent publication US5266578A, “Heterocyclically substituted quinolylmethoxy-phenylacetamides” (Bayer Aktiengesellschaft, priority 1991, dated 1993).

The test system of this assay is 5-LO. Nature of the assay: lipoxygenase inhibition: release of leukotriene B4 in polymorphonuclear human leukocytes (PMN) after addition of substances and Ca ionophore, reverse phase HPLC. It is filed as cell-based. As to conditions: LTB4 release. As to the method: The pharmacological effects of the substances according to the invention are determined by the following method:
As a measure of the lipoxygenase inhibition, the release of leukotriene B4 (LTB.) in polymorphonuclear human leukocytes (PMN) was determined by addition of substances and Ca ionophore by means of reverse phase HPLC according to Borgeat, P. et al., Proc. Nat. Acad. Sci, 76, 2148-2152 (1979).
Table 1 lists by way of example the values obtained by this test for some compounds according to the invention: […]
Take `O=C(Nc1ccccn1)C(c1ccc(OCc2ccc3ccccc3n2)cc1)C1CCCCCC1` (stereo not shown) [Example 1, N-(2-Pyridyl)-2-[4-(quinolin-2-yl-methoxy)phenyl]-2-cycloheptyl-acetamide]: the IC50 (commonly the concentration needed to halve the response being measured) was 500 nM.
In turn, `O=C(Nc1nnn[nH]1)C(c1ccc(OCc2ccc3ccccc3n2)cc1)C1CCCCCC1` (stereo not shown) [Example 2, N-(5-Tetrazolyl)-2-[4-(quinoline-2-yl-methoxy)phenyl]-2-cycloheptyl-acetamide] came in with an IC50 of 260 nM.
Regarding `O=C(NC1=NCCS1)C(c1ccc(OCc2ccc3ccccc3n2)cc1)C1CCCCCC1` (stereo not shown) [Example 3, N-(2-Thiazolinyl)-2-[4-(quinolin-2-yl-methoxy)phenyl]-2-cycloheptyl-acetamide], half-maximal inhibition (IC50) was put at 290 nM.
`O=C(Nc1nccs1)C(c1ccc(OCc2ccc3ccccc3n2)cc1)C1CCCCCC1` (stereo not shown) [Example 4, N-(2-Thiazolyl)-2-[4-(quinolin-2-yl-methoxy)phenyl]-2-cycloheptyl-acetamide] showed an IC50 of 430 nM.
